Target: T1, motilin receptors located on the colon of mature rabbits (Oryctolagus cuniculus, UniProt G1T803)
T1 construct: The muscle tissues were homogenized in 10 volumes of buffer; from tissue; host or cells: colon smooth muscle of mature New Zealand rabbits, crude membrane homogenate
Test: Competition with radiolabeled motilin (porcine) for motilin receptors of rabbit colon membranes
Format: binding
Settings: @100 nM, I125 motilin (porcine)
Procedure: A compound of the invention was tested for its ability to compete with radiolabeled motilin (porcine) for the motilin receptors located on the colon of mature rabbits. The colon from mature New Zealand rabbits was removed, dissected free from the mucosa and serosa layers, and diced into small pieces. The muscle tissues were homogenized in 10 volumes of buffer (50 mM Tris-Cl 10 MM MgCl2, 0.1 mg/mL bactracin, and 0.25 mM Peflabloc, pH 7.5) in a Polytron (29,000 rpm, 4×15 seconds). The homogenate was centrifuged at 1000×g for 15 min. and the supernatant discarded. The pellet was washed twice before being suspended in homogenizing buffer. This crude homogenate was then passed first through a 19 gauge needle then a 23 gauge needle to further suspend the material and stored at −80° C. […] The pellet was counted in the gamma counter to determine the percentage of […] motilin and thereby the percent inhibition of the test compound.
% Inhibition was Determined by Standard Techniques

T1 sequence (G1T803 1-400): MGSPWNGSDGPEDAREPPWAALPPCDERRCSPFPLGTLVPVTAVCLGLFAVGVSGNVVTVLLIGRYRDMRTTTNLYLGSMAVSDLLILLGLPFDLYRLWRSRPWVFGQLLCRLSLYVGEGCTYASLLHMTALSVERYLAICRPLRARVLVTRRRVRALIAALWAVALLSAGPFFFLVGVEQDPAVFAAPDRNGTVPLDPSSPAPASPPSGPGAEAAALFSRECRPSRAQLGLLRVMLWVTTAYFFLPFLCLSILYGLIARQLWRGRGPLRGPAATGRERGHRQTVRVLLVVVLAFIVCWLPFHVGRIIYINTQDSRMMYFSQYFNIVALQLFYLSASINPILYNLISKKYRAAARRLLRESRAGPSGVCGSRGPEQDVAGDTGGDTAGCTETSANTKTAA

% Inhibition: 17%
Compound: O=C(Nc1nncs1)N(CC1=CC(Cc2ccccc2)(NC(=O)C(Cl)(Cl)Cl)CC1)c1cccc(OCCN2CCOCC2)c1 (stereo not shown) [Example 2, 3-Benzyl-3-trichloroacetylamino—N-[(3-(2-morpholinoethoxy)phenyl)-N-[(1,3,4-thiadiazol-2-yl)aminocarbonyl)amino]methylcyclopentene]
